In patent publication US20200166671A1, “LIPOIC ACID HYDROGELS” (UNIVERSIDADE DE SANTIAGO DE COMPOSTELA, priority 2017, published 2020):

Tests used:
[1] = Demulcent loading of hydrogel discs functionalized with CD; type: physicochemical; conditions: 20° C., aqueous demulcent solution
Experimental: Next, a different demulcent was loaded in each disc functionalized with CD.
The weighed hydrogel discs were placed in 5 or 10 mL of aqueous polysorbate 80 solutions (0.2; 0.5 or 1 mg/mL) and kept at 20° C. under magnetic stirring (80 rpm) for 24 hours. Absorbance of the medium was monitored at 234 nm (Agilent […] UV/Vis spectrophotometer, Germany). The amount of loaded polysorbate 80 was estimated from the difference between the amounts in the loading medium before and after the loading tests.
The weighed hydrogel discs were placed in 5 or 10 mL of aqueous PEG4000 solutions (0.1 mg/mL), kept at 20° C. under magnetic stirring (80 rpm) for 48 hours. Aliquots of loading medium were analyzed by means of HPLC. The loaded amount of PEG4000 was estimated from the difference between the amounts in the loading medium before and after the loading tests.
(§1) The weighed hydrogel discs were introduced in vials containing 10 mL of aqueous ALA solution (saturated, ˜0.8 mg/mL). The vials remained under oscillating agitation (150 osc/min) at 20° C. At times 24 and 48 h, a sample of 3 mL of the loading solution was taken and absorbance was measured at 334 nm (Agilent 8453 UV/VIS, Germany). The amount of ALA loaded for every hydrogel was calculated by the difference between the initial content in the loading solution and the remaining content at the end of the test.
The loading results, measured in amount of demulcent for every gram of dry mass of hydrogel, are shown below: […]

[2] = Saturated aqueous ALA solution; type: physicochemical
Experimental: as §1

peroxidase = conditions: Andrade et al., Exp Eye Res. 2014; cited from earlier work
[3] = Andrade et al., Exp Eye Res. 2014; cited from earlier work

| amount of demulcent for every gram of dry mass of hydrogel ([1]; loading 24 h) | amount of demulcent for every gram of dry mass of hydrogel ([1]; loading 48 h) | concentration of saturated aqueous ALA solution [2] | Compound | peroxidase activity (peroxidase) | tear production [3] |
| --- | --- | --- | --- | --- | --- |
| 57 mg/g | 58 mg/g | ~800 µg/mL | O=C(O)CCCC[C@@H]1CCSS1 [α-lipoic acid] | increases peroxidase activity | increase in tear production |
| 1 mg/g |  |  | Polysorbate 80 |  |  |
